Assay results: patent US20250034136A1 (Nimbus Wadjet, Inc., priority 2023, published 2025)

Legend:
[1] = molecular target: WRN (BV08), human Werner helicase (Uniprot Q14191, amino acids 517-1235 with L1074F point mutation) (Homo sapiens (Human), UniProt Q14191, L1074F); experiment: WRN (BV08) ADP-Glo assay; format: biochemical; conditions: class symbols A-E, read-out: ADP-Glo_hWRN_IC50
[2] = system: p21 induction in HCT116 cells; experiment: p21 induction in HCT116 cells; format: cell-based; conditions: Homo sapiens, HCT-116, 24 h, HCT116 cells, 24 h compound incubation; read-out: P21_EC50
In short: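 EC50 from non-linear curve fit of p21 immunofluorescence (800 nm), with GAPDH (700 nm) read alongside. DMSO and a reference WRN inhibitor served as low and high controls. Cells (2,000/well) got 11 compound concentrations in duplicate for 24 h at 37 °C.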

Sequence of WRN (BV08), human Werner helicase (Uniprot Q14191, amino acids 517-1235 with L1074F point mutation) (Q14191 other isoform, or with tags, fused parts or gaps L1074F (already in the parent)): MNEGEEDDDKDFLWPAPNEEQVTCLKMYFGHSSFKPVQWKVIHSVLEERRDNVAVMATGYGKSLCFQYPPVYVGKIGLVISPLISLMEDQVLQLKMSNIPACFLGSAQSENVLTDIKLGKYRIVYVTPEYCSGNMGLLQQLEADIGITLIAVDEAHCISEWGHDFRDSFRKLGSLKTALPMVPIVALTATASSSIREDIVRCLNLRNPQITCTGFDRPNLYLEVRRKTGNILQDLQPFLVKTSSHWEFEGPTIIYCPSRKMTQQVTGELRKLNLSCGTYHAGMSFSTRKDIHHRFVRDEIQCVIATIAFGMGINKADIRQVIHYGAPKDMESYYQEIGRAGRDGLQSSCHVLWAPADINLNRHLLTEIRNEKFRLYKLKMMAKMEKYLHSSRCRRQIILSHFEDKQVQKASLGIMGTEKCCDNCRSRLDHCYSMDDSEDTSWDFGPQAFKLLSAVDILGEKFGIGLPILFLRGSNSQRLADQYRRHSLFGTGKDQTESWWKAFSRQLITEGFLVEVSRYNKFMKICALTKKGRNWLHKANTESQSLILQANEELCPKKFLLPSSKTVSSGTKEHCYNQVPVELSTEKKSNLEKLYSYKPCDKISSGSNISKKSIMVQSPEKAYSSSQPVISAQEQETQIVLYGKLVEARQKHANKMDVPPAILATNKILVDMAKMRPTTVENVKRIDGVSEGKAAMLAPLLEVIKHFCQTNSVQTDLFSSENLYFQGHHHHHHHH

Row | IC50 [1] [nM] | EC50 [2] [nM] | Structure (SMILES)
1 | 5 to 50 | 500 to 2000 | CCc1c(N2CCN(C(=O)c3ncnc(C)c3O)CC2)c(=O)c2nc(C3(C#N)CC3)cnc2n1CC(=O)Nc1ccc(C(F)(F)F)cc1Cl [I-254, N-[2-chloro-4-(trifluoromethyl)phenyl]-2-[2-(1-cyanocyclopropyl)-6-ethyl-7-[4-(5-hydroxy-6-methylpyrimidine-4-carbonyl)piperazin-1-yl]-8-oxo-5H,8H-pyrido[2,3-b]pyrazin-5-yl]acetamide]
2 | 5 to 50 | < 500 | CCc1c(N2CCN(C(=O)c3ncnc(C)c3O)[C@H]3CC[C@@H]32)c(=O)c2nc(N(C)CCOC)cnc2n1CC(=O)Nc1ccc(C(F)(F)F)cc1Cl [I-255, N-[2-chloro-4-(trifluoromethyl)phenyl]-2-{6-ethyl-7-[(1S,6S)-5-(5-hydroxy-6-methylpyrimidine-4-carbonyl)-2,5-diazabicyclo[4.2.0]octan-2-yl]-2-[(2-methoxyethyl)(methyl)amino]-8-oxo-5H,8H-pyrido[2,3-b]pyrazin-5-yl}acetamide]
3 | 100 to 500 | > 5000 | CCc1c(N2CC3CC2CN3C(=O)c2ncnc(C)c2O)c(=O)c2nc(N(C)C)cnc2n1CC(=O)Nc1ccc(C(F)(F)F)cc1Cl (stereo not drawn) [I-258, N-[2-chloro-4-(trifluoromethyl)phenyl]-2-[2-(dimethylamino)-6-ethyl-7-[5-(5-hydroxy-6-methylpyrimidine-4-carbonyl)-2,5-diazabicyclo[2.2.1]heptan-2-yl]-8-oxo-5H,8H-pyrido[2,3-b]pyrazin-5-yl]acetamide]
4 | 5 to 50 | 500 to 2000 | CCc1c(N2CCN(C(=O)c3cc(C)cnc3OC)[C@H]3CC[C@@H]32)c(=O)c2nc(N(C)C)cnc2n1CC(=O)Nc1ccc(C(F)(F)F)cc1Cl [I-259, N-[2-chloro-4-(trifluoromethyl)phenyl]-2-[2-(dimethylamino)-6-ethyl-7-[(1S,6S)-5-(2-methoxy-5-methylpyridine-3-carbonyl)-2,5-diazabicyclo[4.2.0]octan-2-yl]-8-oxo-5H,8H-pyrido[2,3-b]pyrazin-5-yl]acetamide]
5 | 5 to 50 | < 500 | CCc1c(N2CCN(C(=O)c3c(OC)ncc(C)c3O)[C@H]3CC[C@@H]32)c(=O)c2nc(N(C)C)cnc2n1CC(=O)Nc1ccc(C(F)(F)F)cc1Cl [I-261, N-[2-chloro-4-(trifluoromethyl)phenyl]-2-[2-(dimethylamino)-6-ethyl-7-[(1S,6S)-5-(4-hydroxy-2-methoxy-5-methylpyridine-3-carbonyl)-2,5-diazabicyclo[4.2.0]octan-2-yl]-8-oxo-5H,8H-pyrido[2,3-b]pyrazin-5-yl]acetamide]
6 | 5 to 50 | < 500 | CCc1c(N2CCN(C(=O)c3ncnc(C)c3O)[C@H]3CC[C@@H]32)c(=O)c2nc(C)cnc2n1CC(=O)Nc1ccc(C(F)(F)F)cc1Cl [I-262, N-[2-chloro-4-(trifluoromethyl)phenyl]-2-{6-ethyl-7-[(1S,6S)-5-(5-hydroxy-6-methylpyrimidine-4-carbonyl)-2,5-diazabicyclo[4.2.0]octan-2-yl]-2-methyl-8-oxo-5H,8H-pyrido[2,3-b]pyrazin-5-yl}acetamide]
7 | 5 to 50 | > 5000 | CCc1c(N2CCN(C(=O)c3ncnc(C)c3O)[C@H]3CC[C@@H]32)c(=O)c2nc(N3CCNCC3)cnc2n1CC(=O)Nc1ccc(C(F)(F)F)cc1Cl [I-263, N-[2-chloro-4-(trifluoromethyl)phenyl]-2-{6-ethyl-7-[(1S,6S)-5-(5-hydroxy-6-methylpyrimidine-4-carbonyl)-2,5-diazabicyclo[4.2.0]octan-2-yl]-8-oxo-2-(piperazin-1-yl)-5H,8H-pyrido[2,3-b]pyrazin-5-yl}acetamide]
8 | 5 to 50 | < 500 | CCc1c(N2CCN(C(=O)c3ncnc(C)c3O)[C@H]3CC[C@@H]32)c(=O)c2nc(N(C)CCO)cnc2n1CC(=O)Nc1ccc(C(F)(F)F)cc1Cl [I-264, N-[2-chloro-4-(trifluoromethyl)phenyl]-2-{6-ethyl-7-[(1S,6S)-5-(5-hydroxy-6-methylpyrimidine-4-carbonyl)-2,5-diazabicyclo[4.2.0]octan-2-yl]-2-[(2-hydroxyethyl)(methyl)amino]-8-oxo-5H,8H-pyrido[2,3-b]pyrazin-5-yl}acetamide]
9 | 5 to 50 | 2000 to 5000 | CCc1c(N2CCN(C(=O)c3cccc4ncoc34)[C@H]3CC[C@@H]32)c(=O)c2nc(N(C)C)cnc2n1CC(=O)Nc1ccc(C(F)(F)F)cc1Cl [I-265, 2-{7-[(1S,6S)-5-(1,3-benzoxazole-7-carbonyl)-2,5-diazabicyclo[4.2.0]octan-2-yl]-2-(dimethylamino)-6-ethyl-8-oxo-5H,8H-pyrido[2,3-b]pyrazin-5-yl}-N-[2-chloro-4-(trifluoromethyl)phenyl]acetamide]
10 | 5 to 50 | 500 to 2000 | CCc1c(N2CCN(C(=O)c3ncnc(C)c3O)[C@H]3CC[C@@H]32)c(=O)c2nc(N[C@H](C)[C@H](C)O)cnc2n1CC(=O)Nc1ccc(C(F)(F)F)cc1Cl [I-266, N-[2-chloro-4-(trifluoromethyl)phenyl]-2-{6-ethyl-7-[(1S,6S)-5-(5-hydroxy-6-methylpyrimidine-4-carbonyl)-2,5-diazabicyclo[4.2.0]octan-2-yl]-2-{[(2R,3S)-3-hydroxybutan-2-yl]amino}-8-oxo-5H,8H-pyrido[2,3-b]pyrazin-5-yl}acetamide]
11 | 5 to 50 | < 500 | CCc1c(N2CCN(C(=O)c3ncnc(C)c3O)[C@H]3CC[C@@H]32)c(=O)c2nc(N(C)[C@H]3C[C@H](OC)C3)cnc2n1CC(=O)Nc1ccc(C(F)(F)F)cc1Cl [I-267, N-[2-chloro-4-(trifluoromethyl)phenyl]-2-{6-ethyl-7-[(1S,6S)-5-(5-hydroxy-6-methylpyrimidine-4-carbonyl)-2,5-diazabicyclo[4.2.0]octan-2-yl]-2-{methyl[(1r,3r)-3-methoxycyclobutyl]amino}-8-oxo-5H,8H-pyrido[2,3-b]pyrazin-5-yl}acetamide]
12 | ≤ 5 | < 500 | CCc1c(N2CCN(C(=O)c3ncnc(C)c3O)[C@H]3CC[C@@H]32)c(=O)c2nc(-c3cn[nH]c3)cnc2n1CC(=O)Nc1ccc(C(F)(F)F)cc1Cl [I-268, N-[2-chloro-4-(trifluoromethyl)phenyl]-2-{6-ethyl-7-[(1S,6S)-5-(5-hydroxy-6-methylpyrimidine-4-carbonyl)-2,5-diazabicyclo[4.2.0]octan-2-yl]-8-oxo-2-(1H-pyrazol-4-yl)-5H,8H-pyrido[2,3-b]pyrazin-5-yl}acetamide]
13 | 5 to 50 | < 500 | CCc1c(N2CCN(C(=O)c3ncnc(C)c3O)[C@H]3CC[C@@H]32)c(=O)c2nc(N(C)C[C@H](C)OC)cnc2n1CC(=O)Nc1ccc(C(F)(F)F)cc1Cl [I-269, N-[2-chloro-4-(trifluoromethyl)phenyl]-2-{6-ethyl-7-[(1S,6S)-5-(5-hydroxy-6-methylpyrimidine-4-carbonyl)-2,5-diazabicyclo[4.2.0]octan-2-yl]-2-{[(2S)-2-methoxypropyl](methyl)amino}-8-oxo-5H,8H-pyrido[2,3-b]pyrazin-5-yl}acetamide]
14 | 5 to 50 | 500 to 2000 | CCc1c(N2CCN(C(=O)c3ncnc(C)c3O)[C@H]3CC[C@@H]32)c(=O)c2nc(N3CC[C@@H](O)C3)cnc2n1CC(=O)Nc1ccc(C(F)(F)F)cc1Cl [I-270, N-[2-chloro-4-(trifluoromethyl)phenyl]-2-{6-ethyl-7-[(1S,6S)-5-(5-hydroxy-6-methylpyrimidine-4-carbonyl)-2,5-diazabicyclo[4.2.0]octan-2-yl]-2-[(3R)-3-hydroxypyrrolidin-1-yl]-8-oxo-5H,8H-pyrido[2,3-b]pyrazin-5-yl}acetamide]
15 | 5 to 50 | 500 to 2000 | CCc1c(N2CCN(C(=O)c3ncnc(C)c3O)[C@H]3CC[C@@H]32)c(=O)c2nc(N3CC[C@H](O)C3)cnc2n1CC(=O)Nc1ccc(C(F)(F)F)cc1Cl [I-271, N-[2-chloro-4-(trifluoromethyl)phenyl]-2-{6-ethyl-7-[(1S,6S)-5-(5-hydroxy-6-methylpyrimidine-4-carbonyl)-2,5-diazabicyclo[4.2.0]octan-2-yl]-2-[(3S)-3-hydroxypyrrolidin-1-yl]-8-oxo-5H,8H-pyrido[2,3-b]pyrazin-5-yl}acetamide]
16 | 5 to 50 | < 500 | CCc1c(N2CCN(C(=O)c3ncnc(C)c3O)[C@H]3CC[C@@H]32)c(=O)c2nc(-c3cncs3)cnc2n1CC(=O)Nc1ccc(C(F)(F)F)cc1Cl [I-272, N-[2-chloro-4-(trifluoromethyl)phenyl]-2-{6-ethyl-7-[(1S,6S)-5-(5-hydroxy-6-methylpyrimidine-4-carbonyl)-2,5-diazabicyclo[4.2.0]octan-2-yl]-8-oxo-2-(1,3-thiazol-5-yl)-5H,8H-pyrido[2,3-b]pyrazin-5-yl}acetamide]
17 | 5 to 50 | < 500 | CCc1c(N2CCN(C(=O)c3c(Oc4cnn(C)c4)ncc(C)c3O)[C@H]3CC[C@@H]32)c(=O)c2nc(N(C)C)cnc2n1CC(=O)Nc1ccc(C(F)(F)F)cc1Cl [I-273, N-[2-chloro-4-(trifluoromethyl)phenyl]-2-[2-(dimethylamino)-6-ethyl-7-[(1S,6S)-5-{4-hydroxy-5-methyl-2-[(1-methyl-1H-pyrazol-4-yl)oxy]pyridine-3-carbonyl}-2,5-diazabicyclo[4.2.0]octan-2-yl]-8-oxo-5H,8H-pyrido[2,3-b]pyrazin-5-yl]acetamide]
18 | 5 to 50 | < 500 | CCc1c(N2CCN(C(=O)c3c(OC)ncc(OC)c3O)[C@H]3CC[C@@H]32)c(=O)c2nc(N(C)C)cnc2n1CC(=O)Nc1ccc(C(F)(F)F)cc1Cl [I-274]
